± gives the standard deviation of the averaged measurements.
Assay: TIMS collisional cross section (CCS, N2) of the lipid ion; higher = larger ion cross section
Settings: ionization mode: positive, one isomer drawn

SMILES | TIMS collisional cross section (sample type: Liver) | TIMS collisional cross section (sample type: HeLa) | TIMS collisional cross section (sample type: plasma)
CC/C=C\C/C=C\C/C=C\C/C=C\C/C=C\CCCC(=O)OC[C@H](COP(=O)(O)OCCN)OC(=O)CCCCCCCCCCCCCCCCC [PE 20:5_18:0] (ion (formula + adduct): [C43H76NO8P+H] 1+) | 281.4 Å² | – | –
CCCC/C=C\CCCCCCCCCCCC(=O)O[C@H](COC(=O)CCCCCCCCCCCCCCCCCCCCC)COP(=O)(O)OCCN [PE 22:0_18:1@] (ion (formula + adduct): [C45H88NO8P+H] 1+) | – | 294.9 Å² | –
CCCCC/C=C\C/C=C\C/C=C\C/C=C\CCCCCC(=O)OC[C@H](COP(=O)(O)OCCN)OC(=O)CCCCCCCCCCCCCCCCC [PE 22:4_18:0] (ion (formula + adduct): [C45H82NO8P+H] 1+) | 289.7 Å² | – | –
CC/C=C\C/C=C\C/C=C\C/C=C\C/C=C\C/C=C\CCC(=O)OC[C@H](COP(=O)(O)OCCN)OC(=O)CCCCCCC/C=C\CCCCCC [PE 22:6@_16:1] (ion (formula + adduct): [C43H72NO8P+H] 1+) | – | 275 Å² | –
CC/C=C\C/C=C\C/C=C\C/C=C\C/C=C\C/C=C\CCC(=O)OC[C@H](COP(=O)(O)OCCN)OC(=O)CCCCCCC/C=C\CCCCCCCC [PE 22:6_18:1@] (ion (formula + adduct): [C45H76NO8P+H] 1+) | – | 281.9 Å² | –
CC/C=C\C/C=C\C/C=C\C/C=C\C/C=C\C/C=C\CCC(=O)OC[C@H](COP(=O)(O)OCCN)OC(=O)CCCCCCC/C=C\CCCCCCCC [PE 22:6_18:1] (ion (formula + adduct): [C45H76NO8P+H] 1+) | 281.4 Å² | – | –
CC/C=C\C/C=C\C/C=C\C/C=C\C/C=C\C/C=C\CCC(=O)OC[C@H](COP(=O)(O)OCCN)OC(=O)CCCCCCCCCCCCCCCCCCC [PE 22:6_20:0] (ion (formula + adduct): [C47H82NO8P+H] 1+) | 292.6 Å² | – | –
CC/C=C\C/C=C\C/C=C\C/C=C\C/C=C\C/C=C\CCC(=O)OC[C@H](COP(=O)(O)OCCN)OC(=O)CC/C=C\C/C=C\C/C=C\C/C=C\C/C=C\C/C=C\CC [PE 22:6_22:6] (ion (formula + adduct): [C49H74NO8P+H] 1+) | – | 286.7 Å² | –
CCCCCCCC/C=C\CCCCCCCC(=O)O[C@H](COCCCCCCCCCCCCCCCC)COP(=O)(O)OCCN [PE O- 16:0@_18:1] (ion (formula + adduct): [C39H78NO7P+H] 1+) | – | 276 Å² | –
CCCCC/C=C\C/C=C\C/C=C\C/C=C\CCCC(=O)O[C@H](COCCCCCCCCCCCCCCCC)COP(=O)(O)OCCN [PE O- 16:0@_20:4] (ion (formula + adduct): [C41H76NO7P+H] 1+) | – | – | 275.8 Å²
CCCCC/C=C\C/C=C\C/C=C\C/C=C\C/C=C\CCC(=O)O[C@H](COCCCCCCCCCCCCCCCC)COP(=O)(O)OCCN [PE O- 16:0@_22:5] (ion (formula + adduct): [C43H78NO7P+H] 1+) | – | 281.6 Å² | –
CC/C=C\C/C=C\C/C=C\C/C=C\C/C=C\C/C=C\CCC(=O)O[C@H](COCCCCCCCCCCCCCCCC)COP(=O)(O)OCCN [PE O- 16:0@_22:6] (ion (formula + adduct): [C43H76NO7P+H] 1+) | – | 279.6 Å² | –
CCCCC/C=C\C/C=C\C/C=C\C/C=C\CCCC(=O)O[C@H](COCCCCCCCCCCCCCCCCCC)COP(=O)(O)OCCN [PE O- 18:0@_20:4] (ion (formula + adduct): [C43H80NO7P+H] 1+) | 284 Å² | – | –
CCCCCCCC/C=C\CCCCCCCC(=O)O[C@H](CO/C=C\CCCCCCCCCCCCCC)COP(=O)(O)OCCN [PE P- 16:0@_18:1] (ion (formula + adduct): [C39H76NO7P+H] 1+) | 274.1 Å² | 274 Å² | 274.1 Å²
CCCCC/C=C\C/C=C\CCCCCCCC(=O)O[C@H](CO/C=C\CCCCCCCCCCCCCC)COP(=O)(O)OCCN [PE P- 16:0@_18:2] (ion (formula + adduct): [C39H74NO7P+H] 1+) | 270.5 Å² | 270.7 Å² | 270.6 Å²
CCCCCCCCC/C=C\CCCCCCCC(=O)O[C@H](CO/C=C\CCCCCCCCCCCCCC)COP(=O)(O)OCCN [PE P- 16:0@_19:1] (ion (formula + adduct): [C40H78NO7P+H] 1+) | – | 277.5 Å² | –
CCCCCCCC/C=C\CCCCCCCCCC(=O)O[C@H](CO/C=C\CCCCCCCCCCCCCC)COP(=O)(O)OCCN [PE P- 16:0@_20:1] (ion (formula + adduct): [C41H80NO7P+H] 1+) | – | 280.8 Å² | –
CCCCC/C=C\C/C=C\C/C=C\CCCCCCC(=O)O[C@H](CO/C=C\CCCCCCCCCCCCCC)COP(=O)(O)OCCN [PE P- 16:0@_20:3] (ion (formula + adduct): [C41H76NO7P+H] 1+) | – | 275.1 Å² | 276.2 Å²

SMILES | TIMS collisional cross section (sample type: Liver) | TIMS collisional cross section (sample type: HeLa) | TIMS collisional cross section (sample type: plasma)
CCCCC/C=C\C/C=C\C/C=C\C/C=C\CCCC(=O)O[C@H](CO/C=C\CCCCCCCCCCCCCC)COP(=O)(O)OCCN [PE P- 16:0@_20:4] (ion (formula + adduct): [C41H74NO7P+H] 1+) | 273.9 Å² | – | –
CCCCC/C=C\C/C=C\C/C=C\C/C=C\CCCCCC(=O)O[C@H](CO/C=C\CCCCCCCCCCCCCC)COP(=O)(O)OCCN [PE P- 16:0@_22:4] (ion (formula + adduct): [C43H78NO7P+H] 1+) | 281.6 Å² | – | 281.6 Å²
CC/C=C\C/C=C\C/C=C\C/C=C\C/C=C\C/C=C\CCC(=O)O[C@H](CO/C=C\CCCCCCCCCCCCCC)COP(=O)(O)OCCN [PE P- 16:0@_22:6] (ion (formula + adduct): [C43H74NO7P+H] 1+) | – | 277.3 Å² | 277.4 Å²
CCCCCCCCCCCCCC/C=C\OC[C@H](COP(=O)(O)OCCN)OC(=O)CCCCCCCCCCCCCCC [PE P- 16:0_16:0] (ion (formula + adduct): [C37H74NO7P+H] 1+) | – | 272 Å² | –
CCCCCCCC/C=C\CCCCCCCC(=O)O[C@H](CO/C=C\CCCCCCCCCCCCCCCC)COP(=O)(O)OCCN [PE P- 18:0@_18:1] (ion (formula + adduct): [C41H80NO7P+H] 1+) | – | – | 281.4 Å²
CCCCC/C=C\C/C=C\CCCCCCCC(=O)O[C@H](CO/C=C\CCCCCCCCCCCCCCCC)COP(=O)(O)OCCN [PE P- 18:0@_18:2] (ion (formula + adduct): [C41H78NO7P+H] 1+) | 278 Å² | – | –
CCCCC/C=C\C/C=C\C/C=C\CCCCCCC(=O)O[C@H](CO/C=C\CCCCCCCCCCCCCCCC)COP(=O)(O)OCCN [PE P- 18:0@_20:3] (ion (formula + adduct): [C43H80NO7P+H] 1+) | – | 283.7 ± 0.71 Å² | 282.7 Å²
CCCCC/C=C\C/C=C\C/C=C\C/C=C\CCCC(=O)O[C@H](CO/C=C\CCCCCCCCCCCCCCCC)COP(=O)(O)OCCN [PE P- 18:0@_20:4] (ion (formula + adduct): [C43H78NO7P+H] 1+) | 281.6 Å² | 281.6 Å² | 281.6 ± 0.14 Å²
CC/C=C\C/C=C\C/C=C\C/C=C\C/C=C\C/C=C\CCC(=O)O[C@H](CO/C=C\CCCCCCCCCCCCCCCC)COP(=O)(O)OCCN [PE P- 18:0@_22:6] (ion (formula + adduct): [C45H78NO7P+H] 1+) | 285 Å² | – | 284.2 Å²
CCCCC/C=C\C/C=C\CCCCCCCC(=O)O[C@H](CO/C=C\CCCCCCCCCCCCCCCCCC)COP(=O)(O)OCCN [PE P- 20:0@_18:2] (ion (formula + adduct): [C43H82NO7P+H] 1+) | – | – | 285 Å²
CCCCC/C=C\C/C=C\C/C=C\CCCCCCC(=O)O[C@H](CO/C=C\CCCCCCCCCCCCCCCCCC)COP(=O)(O)OCCN [PE P- 20:0@_20:3] (ion (formula + adduct): [C45H84NO7P+H] 1+) | – | 290.7 Å² | –
CCCCC/C=C\C/C=C\C/C=C\C/C=C\CCCC(=O)O[C@H](CO/C=C\CCCCCCCCCCCCCCCCCC)COP(=O)(O)OCCN [PE P- 20:0@_20:4] (ion (formula + adduct): [C45H82NO7P+H] 1+) | 288.7 Å² | – | –
CC/C=C\C/C=C\C/C=C\C/C=C\C/C=C\CCCC(=O)OC[C@H](COP(=O)(O)O[C@H]1C(O)C(O)C(O)[C@@H](O)C1O)OC(=O)CCCCCCCCCCCCCCCCC (some centres not stated) [PI 20:5_18:0@] (ion (formula + adduct): [C47H81O13P+H] 1+) | – | – | 308 Å²
CCCCCCCCCCCCCCC(=O)OC[C@H](COP(=O)(O)OC[C@H](N)C(=O)O)OC(=O)CCCCCCCCCCCCC [PS 15:0_14:0] (ion (formula + adduct): [C35H68NO10P+Na] 1+) | 270.3 Å² | – | –
CCCCCC/C=C\CCCCCCCCCC(=O)O[C@H](COC(=O)CCCCCCCCCCCCCCC)COP(=O)(O)OC[C@H](N)C(=O)O [PS 16:0_18:1@] (ion (formula + adduct): [C40H76NO10P+H] 1+) | – | 282.1 Å² | –
CCCCCCCCCCC/C=C/[C@@H](O)[C@H](COP(=O)([O-])OCC[N+](C)(C)C)NC(=O)CCCCCCCCCCCCCCC [SM d16:1_16:0@] (ion (formula + adduct): [C37H75N2O6P+H] 1+) | – | – | 279.1 Å²
CCCCCCCC/C=C\CCCCCCCCCCCC(=O)N[C@@H](COP(=O)([O-])OCC[N+](C)(C)C)[C@H](O)/C=C/CCCCCCCCCCC [SM d16:1_22:1@] (ion (formula + adduct): [C43H85N2O6P+H] 1+) | – | – | 294.45 ± 0.21 Å²
CCCCCCCC/C=C\CCCCCCCCCCCCCC(=O)N[C@@H](COP(=O)([O-])OCC[N+](C)(C)C)[C@H](O)/C=C/CCCCCCCCCCC [SM d16:1_24:1@] (ion (formula + adduct): [C45H89N2O6P+H] 1+) | – | – | 299.8 Å²
